Reference: the NIST ThermoML archive (doi:10.1016/j.jct.2016.10.023)

Experiment: xn = mol fraction of the nth substance listed
Conditions: Constant-volume piezometry

CCCCC [pentane] + CCCO
mass density [kg/m3]
Conditions	Fluid (supercritical or subcritical phases)	Gas
518.15 K, 4877 kPa, x1 = 0.2	220.15	–
518.15 K, 4965 kPa, x1 = 0.2	259.26	–
518.15 K, 4994 kPa, x1 = 0.2	272.43	–
518.15 K, 5010 kPa, x1 = 0.2	290.61	–
523.15 K, 954 kPa, x1 = 0.5	–	15.52
523.15 K, 1314 kPa, x1 = 0.8	–	22.52
523.15 K, 1549 kPa, x1 = 0.2	–	24.93
523.15 K, 1732 kPa, x1 = 0.5	–	29.98
523.15 K, 1978 kPa, x1 = 0.8	–	36.69
523.15 K, 2284 kPa, x1 = 0.5	–	40.49
523.15 K, 2704 kPa, x1 = 0.5	–	51.09
523.15 K, 2890 kPa, x1 = 0.8	–	58.41
523.15 K, 3111 kPa, x1 = 0.2	–	53.01
523.15 K, 3416 kPa, x1 = 0.5	–	67.52
523.15 K, 3421 kPa, x1 = 0.8	–	73.79
523.15 K, 3614 kPa, x1 = 0.5	–	72.6
523.15 K, 3631 kPa, x1 = 0.9	83.38	–
523.15 K, 4037 kPa, x1 = 0.2	–	91.41
523.15 K, 4041 kPa, x1 = 0.5	–	88.91
523.15 K, 4261 kPa, x1 = 0.5	–	95.85
523.15 K, 4356 kPa, x1 = 0.8	106.4	–
523.15 K, 4459 kPa, x1 = 0.2	114.35	114.35
523.15 K, 4600 kPa, x1 = 0.9	123.35	–
523.15 K, 4817 kPa, x1 = 0.9	134.12	–
523.15 K, 4864 kPa, x1 = 0.2	150.34	–
523.15 K, 4871 kPa, x1 = 0.5	121.89	–
523.15 K, 5043 kPa, x1 = 0.2	175.61	–
523.15 K, 5108 kPa, x1 = 0.2	189.64	–
523.15 K, 5158 kPa, x1 = 0.8	140.3	–
523.15 K, 5206 kPa, x1 = 0.5	144.11	–
523.15 K, 5208 kPa, x1 = 0.2	220.1	–
523.15 K, 5292 kPa, x1 = 0.2	245.47	–
523.15 K, 5316 kPa, x1 = 0.9	163.95	–
523.15 K, 5328 kPa, x1 = 0.2	259.2	–
523.15 K, 5343 kPa, x1 = 0.2	262.9	–
523.15 K, 5359 kPa, x1 = 0.5	154.49	–
523.15 K, 5364 kPa, x1 = 0.2	272.36	–
523.15 K, 5370 kPa, x1 = 0.8	156.04	–
523.15 K, 5423 kPa, x1 = 0.2	290.54	–
523.15 K, 5483 kPa, x1 = 0.2	306.83	–
523.15 K, 5508 kPa, x1 = 0.2	311.06	–
523.15 K, 5518 kPa, x1 = 0.5	165.14	–
523.15 K, 5551 kPa, x1 = 0.2	318.77	–
523.15 K, 5586 kPa, x1 = 0.8	169.78	–
523.15 K, 5668 kPa, x1 = 0.8	176.03	–
523.15 K, 5707 kPa, x1 = 0.2	341.26	–
523.15 K, 5707 kPa, x1 = 0.5	182.85	–
523.15 K, 5717 kPa, x1 = 0.9	189.45	–
523.15 K, 5731 kPa, x1 = 0.2	344.05	–
523.15 K, 5763 kPa, x1 = 0.8	180.83	–
523.15 K, 5911 kPa, x1 = 0.9	202.38	–
523.15 K, 5913 kPa, x1 = 0.5	200.39	–
523.15 K, 5925 kPa, x1 = 0.8	193.16	–
523.15 K, 6011 kPa, x1 = 0.5	210.22	–
523.15 K, 6117 kPa, x1 = 0.5	224.05	–
523.15 K, 6195 kPa, x1 = 0.9	220.68	–
523.15 K, 6235 kPa, x1 = 0.5	241.5	–
523.15 K, 6236 kPa, x1 = 0.8	213.85	–
523.15 K, 6242 kPa, x1 = 0.2	378.64	–
523.15 K, 6294 kPa, x1 = 0.5	250.69	–
523.15 K, 6320 kPa, x1 = 0.8	219.62	–
523.15 K, 6339 kPa, x1 = 0.2	383.45	–
523.15 K, 6353 kPa, x1 = 0.5	259.74	–
523.15 K, 6399 kPa, x1 = 0.9	233.06	–
523.15 K, 6454 kPa, x1 = 0.9	236.53	–
523.15 K, 6480 kPa, x1 = 0.5	270.56	–
523.15 K, 6513 kPa, x1 = 0.9	240.93	–
523.15 K, 6560 kPa, x1 = 0.2	391.28	–
523.15 K, 6567 kPa, x1 = 0.9	244.24	–
523.15 K, 6580 kPa, x1 = 0.8	234.7	–
523.15 K, 6628 kPa, x1 = 0.5	282.38	–
523.15 K, 6748 kPa, x1 = 0.8	245.34	–
523.15 K, 6923 kPa, x1 = 0.5	298.67	–
523.15 K, 6963 kPa, x1 = 0.8	258.57	–
523.15 K, 7242 kPa, x1 = 0.8	272.53	–
523.15 K, 7295 kPa, x1 = 0.9	282.01	–
523.15 K, 7431 kPa, x1 = 0.5	320	–
523.15 K, 7549 kPa, x1 = 0.5	325.27	–
523.15 K, 7577 kPa, x1 = 0.2	418.71	–
523.15 K, 7600 kPa, x1 = 0.8	288.38	–
523.15 K, 7736 kPa, x1 = 0.9	301.69	–
523.15 K, 7896 kPa, x1 = 0.8	299.2	–
523.15 K, 8097 kPa, x1 = 0.5	344.56	–
523.15 K, 8118 kPa, x1 = 0.9	312.33	–
523.15 K, 8453 kPa, x1 = 0.8	315.37	–
523.15 K, 8992 kPa, x1 = 0.9	334.04	–
523.15 K, 9070 kPa, x1 = 0.5	372.89	–
523.15 K, 9148 kPa, x1 = 0.8	333.86	–
523.15 K, 9669 kPa, x1 = 0.8	345.38	–
523.15 K, 10260 kPa, x1 = 0.9	354.13	–
523.15 K, 10494 kPa, x1 = 0.5	398.14	–
523.15 K, 10826 kPa, x1 = 0.8	361.95	–
523.15 K, 11137 kPa, x1 = 0.2	470.39	–
523.15 K, 12130 kPa, x1 = 0.5	417.24	–
523.15 K, 14557 kPa, x1 = 0.5	440.97	–
523.15 K, 15550 kPa, x1 = 0.9	407.31	–
523.15 K, 15764 kPa, x1 = 0.5	451.29	–
523.15 K, 16344 kPa, x1 = 0.8	418.23	–
523.15 K, 16569 kPa, x1 = 0.2	509.61	–
523.15 K, 19192 kPa, x1 = 0.5	468.18	–
523.15 K, 25897 kPa, x1 = 0.2	547.05	–
523.15 K, 26649 kPa, x1 = 0.8	466.73	–
523.15 K, 33702 kPa, x1 = 0.5	519.37	–
523.15 K, 36508 kPa, x1 = 0.8	496.15	–
523.15 K, 39812 kPa, x1 = 0.2	581.35	–
533.15 K, 1342 kPa, x1 = 0.8	–	22.51
533.15 K, 1590 kPa, x1 = 0.2	–	24.92
533.15 K, 2034 kPa, x1 = 0.8	–	36.67
533.15 K, 2979 kPa, x1 = 0.8	–	58.39
533.15 K, 3245 kPa, x1 = 0.2	–	52.98
533.15 K, 3545 kPa, x1 = 0.8	–	73.76
533.15 K, 3768 kPa, x1 = 0.9	83.34	–
533.15 K, 4255 kPa, x1 = 0.2	–	91.37
533.15 K, 4552 kPa, x1 = 0.8	106.35	–
533.15 K, 4745 kPa, x1 = 0.2	–	114.3
533.15 K, 4839 kPa, x1 = 0.9	123.29	–
533.15 K, 5078 kPa, x1 = 0.9	134.05	–
533.15 K, 5281 kPa, x1 = 0.2	150.27	–
533.15 K, 5454 kPa, x1 = 0.8	140.24	–
533.15 K, 5541 kPa, x1 = 0.2	175.53	–
533.15 K, 5638 kPa, x1 = 0.2	189.54	–
533.15 K, 5660 kPa, x1 = 0.9	163.88	–
533.15 K, 5720 kPa, x1 = 0.8	155.97	–
533.15 K, 5833 kPa, x1 = 0.2	219.99	–
533.15 K, 5973 kPa, x1 = 0.8	169.7	–
533.15 K, 5993 kPa, x1 = 0.2	245.35	–
533.15 K, 6071 kPa, x1 = 0.8	175.94	–
533.15 K, 6078 kPa, x1 = 0.2	259.07	–
533.15 K, 6109 kPa, x1 = 0.2	262.77	–
533.15 K, 6137 kPa, x1 = 0.9	189.36	–
533.15 K, 6162 kPa, x1 = 0.2	272.22	–
533.15 K, 6177 kPa, x1 = 0.8	180.74	–
533.15 K, 6285 kPa, x1 = 0.2	290.39	–
533.15 K, 6384 kPa, x1 = 0.8	193.07	–
533.15 K, 6395 kPa, x1 = 0.9	202.28	–
533.15 K, 6426 kPa, x1 = 0.2	306.67	–
533.15 K, 6463 kPa, x1 = 0.2	310.9	–
533.15 K, 6550 kPa, x1 = 0.2	318.61	–
533.15 K, 6727 kPa, x1 = 0.9	220.58	–
533.15 K, 6761 kPa, x1 = 0.8	213.75	–
533.15 K, 6844 kPa, x1 = 0.2	341.09	–
533.15 K, 6859 kPa, x1 = 0.8	219.51	–
533.15 K, 6879 kPa, x1 = 0.2	343.88	–
533.15 K, 6955 kPa, x1 = 0.9	232.95	–
533.15 K, 7014 kPa, x1 = 0.9	236.41	–
533.15 K, 7092 kPa, x1 = 0.9	240.81	–
533.15 K, 7159 kPa, x1 = 0.9	244.12	–
